Results published in paper PMC5750218, “Protein-inspired antibiotics active against vancomycin- and daptomycin-resistant bacteria” (Nature Communications, 2018).
Converted amounts (≈) assume the structure as drawn.

Key:
[1] = test system: Bacillus subtilis ATCC 6633; test: microbe, parasite or virus in culture; type: cell-based
Experimental: All compounds were dissolved in H2O. Bacillus subtilis ATCC® 6633™ NRS-231 was cultured in MHB at 37 °C for 48 h. A sample of each culture was then diluted 40-fold in fresh MHB and incubated at 37 °C for 18 h. Compounds were added to each row of 96-well NBS plates (NBS, Corning 3641), in duplicate. The tripeptide N,N΄-diacetyl-L-Lys-D-Ala-D-Ala was serially diluted twofold across the compound-containing wells from 6400 to 3 µg mL^−1. To this the resultant mid-log phase cultures were diluted to the final concentration of 5 × 10^5 CFU mL^−1, then added to wells of the compound-containing plates. All the plates were covered and incubated at 37 °C for 24 h.

[2] = Critical micelle concentration assay; type: physicochemical; settings: 0.2 M NaCl, DPH
Experimental: CMCs were determined as previously described[46] with a higher throughput modification. Briefly, a cascade dilution of each antibiotic was performed in a low binding polypropylene V-bottom shaped 96-well plates in the presence of 0.2 M NaCl solution across 12 concentrations ranging from 1000 to 0.1 μM, except the control melittin (100 to 0.01 μM). An identical cascade dilution was performed for the neutral detergent Triton X-100 and the anionic detergent sodium dodecyl sulphate (SDS) starting from 0.1% down to 0.00001% (vol:vol for Triton X-100 and wt:vol for SDS). An aliquot of […] (DPH) in DMSO was added in each well to yield the final DPH concentration of 5 μM. The reaction mixtures were mixed for 30 s and transferred in horizontal triplicate (25 μL per well) into a black falcon 384-well plate. The 384-well plate was then sealed, wrapped up in aluminium foil and incubated for 30 min at room temperature. The fluorescence intensity was monitored in real time using a BMG Labtech PolarStar Omega multimode reader fitted with 360-10 and 430-10 excitation and emission filters respectively, at an excitation wavelength of 360 nm and an emission wavelength of 430 nm.

[3] = test system: Multi-drug-resistant S. pneumoniae ATCC 700677; test: microbe, parasite or virus in culture; settings: ATCC 700677
Outline: (§1)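 Overnight cultures in MHB were diluted 40-fold and regrown 2–3 h at 37 °C, then exposed to twofold compound dilutions (8 to 0.003 µg mL^−1) for 24 h at 37 °C. The lowest concentration without visible growth was recorded as the MIC.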

[4] = test system: Vancomycin-resistant (VanA) Enterococcus faecium ATCC 51559; test: microbe, parasite or virus in culture; settings: ATCC 51559
Outline: as §1

[5] = test system: Vancomycin-intermediate S. aureus NRS1; test: microbe, parasite or virus in culture; settings: Vancomycin-intermediate NRS1
Outline: as §1

[6] = test system: Methicillin-resistant S. aureus ATCC 43300; test: microbe, parasite or virus in culture; settings: ATCC 43300, 24 h
Outline: as §1

[7] = Cytotoxicity MTT assay; type: cell-based, human; settings: human
[8] = in vitro; settings: human, 50% human plasma (pooled, sodium heparin) in PBS, pH 7.4
Experimental: (§2) Briefly, test compounds (20 μM) were prepared from a 0.2 mM H2O stock solution (40 μL in 400 μL assay volume) except eucatropine, which was 300 μg mL^−1 in 100% DMSO (10 μL in 400 μL assay volume equivalent to 23 μM). The precipitating solution was prepared by adding 5 μL of 10 mM carbutamide in DMSO to 100 mL acetonitrile (final concentration: 135.5 ng mL^−1 or 0.5 μM carbutamide). The human plasma sample (pooled normal human plasma sodium heparin anticoagulant, 2 µL, Cat No.: [sequence], BioReclamation) and phosphate-buffer saline (PBS, pH 7.4 isotonic) were pre-heated at 37 °C for 30 min. 40 μL of test compounds (0.2 mM) were added to protein-low binding Eppendorf tubes, 160 μL of buffer was added, and the mixture was vortexed. For eucatropine, 10 μL of eucatropine (300 μg mL^−1) was added to a protein-low binding Eppendorf tube, 190 μL of buffer was added, and the mixture was vortexed. In each case, 200 μL of plasma was added and the resultant mixture vortexed. For the initial time point (reaction time t = 0 h), 50 μL of sample was immediately transferred into a protein-low binding Eppendorf tube and quenched with 150 μL of the ice-cold precipitating solution, followed by vortexing and subsequent storage at 4 °C. For the remaining time points, the plasma solution was incubated and shaken (150 rpm) at 37 °C. 50 μL aliquots were collected at time points of 0, 1, 3, 6 and 24 h and quenched with 150 μL the ice-cold precipitating solution. All samples were placed in a 4 °C fridge for 30 min then centrifuged at 14,000 × g for 8 min at 4 °C. The supernatant (100 μL) was transferred to a glass vial insert and stored at 4 °C until LC-MS/MS analysis. The percentage of test compounds remaining at the individual time points relative to sample at time point 0 h were reported.

[9] = 37 °C, 20 µM
Experimental: as §2

[10] = Cytotoxicity MTT assay; type: cell-based, human; settings: human; remark: listed apart in the source
Outline: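 HepG2 and HEK293 cells, 1.5 × 10^4 per well in DMEM with 1% FBS, were allowed to attach for 24 h, then exposed 24 h at 37 °C to compounds at 100 µM to 0.046 µM in threefold steps. MTT (0.4 mg mL^−1) was added for 2 h, and formazan in DMSO was read at 570 nm. Viability is given as percent of control, corrected for a positive control.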

Compound: CN[C@H](CC(C)C)C(=O)N[C@H]1C(=O)N[C@@H](CC(N)=O)C(=O)N[C@H]2C(=O)N[C@H]3C(=O)N[C@H](C(=O)N[C@H](C(=O)NCCCC[C@H](NC(=O)[C@H](CCCCN)NC(=O)[C@H](CCCCN)NC(=O)[C@H](CCCCNC(=O)c4ccc(Oc5ccccc5)cc4)NC(=O)c4ccc(Oc5ccccc5)cc4)C(=O)O)c4cc(O)cc(O)c4-c4cc3ccc4O)[C@H](O)c3ccc(c(Cl)c3)Oc3cc2cc(c3O[C@@H]2O[C@H](CO)[C@@H](O)[C@H](O)[C@H]2O[C@H]2C[C@](C)(N)[C@H](O)[C@H](C)O2)Oc2ccc(cc2Cl)[C@H]1O [Compound 23, POP2K-KK-K(Vancomycin)-OH]
- Ac2Kaa concentration required to neutralise MIC activity ([1]; ATCC 6633, 48 h): 200 mg/L
- MIC ([1]; ATCC 6633, 48 h): ≤ 0.004 mg/L
- Molar excess of Ac2Kaa ligand required to antagonise antibacterial activity ([1]; [ligand]/[antibiotic], B. subtilis ATCC 6633, 24 h): 15,102
- critical micelle concentration (CMC) [2]: exceed 100 µM
- MIC MDR S.P. [3]: <0.003 mg/L
- MIC VRE [4]: 4 mg/L (≈ 1700 nM)
- MIC VISA [5]: 0.5 mg/L (≈ 212 nM)
- MIC MRSA [6]: <0.003 mg/L
- CC50 at 24 h [7]: 41 µM
- remaining at 1 h, 20 µM [8]: 107%
- remaining at 6 h, 20 µM [8]: 103%
- remaining at 24 h, 20 µM [8]: 99%
- % compound remaining after incubation in 50% human plasma, 0h [9]: 100%
- CC50 at 24 h [10]: 47 µM
